Assay results published in ChEMBL document CHEMBL5724803, “Viability screening in matched tumor and normal assay results for EUbOPEN Chemogenomics Library” (2024).

system: Colon organoid; assay type: functional, Homo sapiens

Row | Structure (SMILES) | Cell Viability Ratio
1 | Cc1c(NC(=O)c2ccc(C(C)(C)C)cc2)cccc1-c1cn(C)c(=O)c(Nc2ccc(C(=O)N3CCOCC3)cc2)n1 | 0.9821
2 | CCOC(=O)c1c(/C(C#N)=C\N)c2ccc(Cl)c(Cl)c2n1C | 1.055
3 | Cl.Cl.Cl.c1ccc(N2CCN(Cc3nc4ccccc4[nH]3)CC2)nc1 | 0.9546
4 | O=C(Nc1cccnn1)N1CCC(=Cc2cccc(Oc3ccc(C(F)(F)F)cn3)c2)CC1 | 0.957
5 | COc1cc(Nc2nccc(-c3cnn4nc(OC)ccc34)n2)cc(C(F)(F)F)c1 | 1.735
6 | Cc1ccc(NC(=O)Nc2cc(C(F)(F)F)ccc2F)cc1Nc1ccc2c(c1)NC(=O)/C2=C\c1ccc[nH]1 | 0.7659
7 | CCCCNc1ncc(-c2ccc(CN3CCOCC3)cn2)c(N[C@H]2CC[C@H](O)CC2)n1 | 1.102
8 | COc1cc(-c2cn([C@H]3CCc4c(F)cccc4N(CC(F)(F)F)C3=O)nn2)ccc1-n1cnc(C)c1 | 1.087
9 | Clc1cccc(-c2nnnn2Cc2cccnc2)c1Cl | 0.9298
10 | Cc1nc(N2CC[C@H](O)C2)ncc1-c1cc(C(F)(F)F)cc2[nH]ncc12 | 1.041
11 | CCOc1cn(-c2ccc(F)cc2C)nc1C(=O)Nc1ccc(Oc2ccnc3cc(OC)c(OC)cc23)c(F)c1 | 0.8903
12 | Cc1c(C(=O)Nc2ccc(Oc3ccnc4[nH]cc(-c5ccccc5)c34)c(F)c2)c(=O)n(-c2ccc(F)cc2)n1C | 0.9213
13 | CCNC(=O)c1cc2c(N3CCOC[C@@H]3C)ccnc2n1C | 1.086
14 | CCNC(=O)c1cc2c(N3CCOC[C@@H]3C)ccnc2[nH]1 | 0.9047
15 | COc1cc(Nc2ccnc3ccc(Br)cc23)cc(OC)c1OC | 1.477
16 | CCN(CC)S(=O)(=O)Nc1cccc(-c2ccc3c(NC(=O)C4CC4)n[nH]c3c2)c1 | 1.062
17 | CN(C)C(=O)Cn1cc(-c2ccc(-c3cncc4ccccc34)cc2)cn1 | 0.9698
18 | CC(C)C(=O)Nc1n[nH]c2cc(-c3cccc(NS(=O)(=O)C4CC4)c3)ccc12 | 1.005
19 | COc1cc(N(C)c2ccnc3ccc(C(F)(F)F)cc23)cc(OC)c1OC | 0.896

Row | Structure (SMILES) | Cell Viability Ratio
20 | CN1CCN(Cc2cc(NC(=O)c3ccc4c(c3)CN(c3ccccc3)CC4)cc(C(F)(F)F)c2)CC1 | 1.189
21 | Cc1cn(-c2cc(NC(=O)c3ccc4c(c3)CN(c3cncnc3)C[C@@H]4C)cc(C(F)(F)F)c2)cn1 | 1.531
22 | CN(C)C(=O)/C(C#N)=C/c1ccc(-c2nc3cnc4[nH]ccc4c3n2C2CCCCC2)o1 | 0.9378
23 | Cl.Cl.NC1(c2ccc(-c3nc4ccn5c(=O)[nH]nc5c4cc3-c3ccccc3)cc2)CCC1 | 1.463
24 | Cn1cc(-c2ccc3occ(-c4ccccc4-c4ccccc4)c3n2)cn1 | 0.9405
25 | Cc1cccc(-c2cnc3occ(-c4ccc(C(=O)O)c(C5CCCC5)c4)c3c2)c1 | 0.9583
26 | COc1cc(-c2cn([C@H]3CCc4ccccc4N(CC(F)(F)F)C3=O)nn2)ccc1-n1ccc(C)n1 | 0.9931
27 | C[C@@H](c1cccc(CN)c1)n1cc(Cl)cc(C(N)=O)c1=N.Cl | 1.078
28 | Cn1cc(-c2ccc3occ(-c4cccc(-c5ccncc5)c4)c3n2)cn1 | 0.9731
29 | CCCCN(CCCC)C(=O)CN1C[C@H](c2cc(OC)c3c(c2)OCO3)[C@@H](C(=O)O)[C@@H]1CC(C)(C)CCC.Cc1ccc(S(=O)(=O)O)cc1 | 0.9627
30 | O=C(NCCCN1CCOC1=O)c1cnc(NCc2cc(Br)ccc2Br)nc1NC1CCCC1 | 0.9691
31 | CCN(Cc1ccc(Cl)cc1)c1ncc(C(=O)NCCCN2CCCC2=O)c(NC2CCCC2)n1 | 1.023
32 | O=C(NCc1ccccc1)c1ccc(S(=O)(=O)NCc2ccccc2)cc1 | 1.216
33 | O=C(Nc1cccnn1)N1CC(C/C=C/c2cncc(Oc3ccc(C(F)(F)F)cn3)n2)C1 | 0.9954
34 | O=C(O)c1ccc(-c2coc3ncc(-c4ccccc4)cc23)cc1Cl | 0.9757
35 | CCCCN(Cc1ccccc1)C(=O)c1ccc(S(=O)(=O)Nc2ccccc2)cc1 | 1.3021
36 | CCCCN(CCCC)C(=O)CN1C[C@@H](c2cc(OC)c3c(c2)OCO3)[C@H](C(=O)O)[C@H]1CC(C)(C)CCC.Cl | 0.8768
37 | CN(C)C(=O)/C(C#N)=C/c1ccc(-c2nc3cnc4c(ccn4C)c3n2C2CCCCC2)o1 | 0.859
38 | c1ccc2oc(-c3csc(C4CCN(Cc5nc6ncccc6[nH]5)CC4)n3)cc2c1 | 0.6127

Row | Structure (SMILES) | Cell Viability Ratio
39 | COc1cc(Nc2nc(C)cc(-c3cnn4nc(OC)ccc34)n2)cc(C(F)(F)F)c1 | 0.9824
40 | CN(C)C(=O)Cn1cc(-c2ccc(-c3nnc4ccccn34)cc2)cn1 | 1.225
41 | CN(C)C(=O)N1CC[C@H](NC2=Nc3cc(F)ccc3N(CC(F)F)c3ccc(Cl)cc32)C1 | 0.9552
42 | CN(C)[C@@H]1CCN(c2cc(-c3ccccc3)nc3ccnn23)C1 [(R)-ZINC-3573] | 0.9989
43 | CN(C)[C@H]1CCN(c2cc(-c3ccccc3)nc3ccnn23)C1 [(S)-ZINC-3573] | 1.093
44 | Cn1cncc1[C@@](O)(COc1ccc(C#N)cc1-c1ccc(OC(F)(F)F)cc1)c1ccc(C#N)cc1 [A-108] | 0.984
45 | CCC(=N\O)/C(C)=C/c1ccc(F)c(C)c1 [A-226] | 1.032
46 | CNC(=O)Nc1ccc2c(c1)CC[C@@]21OC(=O)N(CC(=O)N(Cc2ccc(F)cc2)[C@@H](C)C(F)(F)F)C1=O [A-485] | 0.9163
47 | CNC(=O)Nc1ccc2c(c1)[C@@]1(CC2)OC(=O)N(CC(=O)N(Cc2ccc(F)cc2)[C@@H](C)C(F)(F)F)C1=O [A-486] | 0.9599
48 | CCCCN(CCCC)C(=O)CN1C[C@@H](c2cc(OC)c3c(c2)OCO3)[C@H](C(=O)O)[C@H]1CC(C)(C)CCC [A-545] | 1.095
49 | CCCOc1ccc([C@H]2[C@H](C(=O)O)[C@@H](c3ccc4c(c3)OCO4)CN2CC(=O)Nc2c(CC)cccc2CC)cc1 [A-192621] | 1.0774
50 | O=C(NS(=O)(=O)c1ccc(NCC2CCOCC2)c([N+](=O)[O-])c1)c1ccc(N2CCN(Cc3ccc(C(F)(F)F)cc3-c3ccc(Cl)cc3)CC2)cc1Oc1cnc2[nH]ccc2c1 [A-1210227] | 0.9477
51 | CO[C@H]1CC[C@H](CNc2ccc(S(=O)(=O)NC(=O)c3ccc(N4CCN(CC5=C(c6ccc(Cl)cc6)CC(C)(C)CC5)CC4)cc3Oc3cnc4[nH]ccc4c3)cc2[N+](=O)[O-])CC1 [A-1211212] | 0.9488
52 | COc1ccc2c(c1)O[C@H](c1ccc(OC)c(OC)c1)C[C@@H]2NC(=O)C1(c2ccc3c(c2)OC(F)(F)O3)CC1 [A-1596584] | 0.985
53 | COc1ccc2c(c1)O[C@@H](c1ccc(OC)c(OC)c1)C[C@H]2NC(=O)C1(c2ccc3c(c2)OC(F)(F)O3)CC1 [A-1596586] | 1.062
54 | CCCOc1ccc([C@@H]2[C@@H](C(=O)O)[C@H](c3ccc4c(c3)OCO4)CN2CC(=O)Nc2c(CC)cccc2CC)cc1 [A-1806262] | 1.041
55 | Cc1cnc(-c2cc(Cl)ccc2F)cc1-n1c(=O)n(CC(N)=O)c2ccccc21 [Al11] | 1.079
56 | Cn1c(-c2csc(C3CCN(CC4=NC5N=CC=CC5N4)CC3)n2)nc2ccccc21 (configuration not stated) [BAY-070] | 0.9524
57 | NS(=O)(=O)c1cc(NC(=O)C2(c3ccccc3Cl)CC2)ccc1Oc1cccc(Cl)c1 [BAY-207] | 0.9336
